From paper PMC11043318, “Quantification of biochemical PSA dynamics after radioligand therapy with [^177Lu]Lu-PSMA-I&T using a population pharmacokinetic/pharmacodynamic model” (EJNMMI Physics, 2024)
Where “and” joins values, the source holds several entries; their conditions need not be identical. Equal values may be shown once. Each block holds one compound with its values, some of them ahead of it.

Legend:
[1] = cited from earlier work
From the text: Comparison of rate constants for drug transfer between different compartments is hampered by absolute radioactivity amounts being relatively small in tumors compared to organs (due to volume differences between these compartments). […] Though differences are small, these might be caused by different treatment intervals (two-week instead of six-week interval) for most patients.

[2] = Population pharmacokinetic model from post-administration SPECT/CT data; type: in vivo, human
[3] = tested on: serum prostate-specific antigen (PSA); assay: Tumor exposure (AUC) threshold for PSA response, linear regression; type: in vivo, human; conditions: Bayesian estimated tumor AUC of first two cycles
From the text: As an exploratory analysis, the final population PKPD model was used to assess a potential tumor exposure threshold required to achieve treatment response. The individually (Bayesian) estimated area under the curve (AUC) based on the first two treatment cycles was related to the change in PSA (%) for each patient. Since PSA is a continuous response measure and there is no defined moment to determine response, two endpoints for response were considered: nadir PSA and the last measured PSA value after the first two treatment cycles. A linear regression was performed to assess the relationship and was subsequently used to define tumor AUC thresholds required to achieve treatment response (≥ 50% decrease in PSA). Formal statistical testing was not possible, since individual (Bayesian) estimates of tumor exposure cannot be considered independent variables.

[4] = tested on: serum prostate-specific antigen (PSA); assay: Population PKPD model of PSA dynamics after therapy; type: in vivo, human; conditions: estimate (RSE%)
From the text: Data from patients treated in our hospital with [^177Lu]Lu-PSMA-I&T between September 2019 and January 2023 were collected for population PK model development. This retrospective data collection was approved by the Institutional Review Board of the Netherlands Cancer Institute (IRBd21288). Baseline patient characteristics were collected, such as age, body weight, height and serum creatinine clearance. In addition, individual PSA concentrations were collected and used as input for the PD model. As pre-treatment PSA value, only the last observation prior to [^177Lu]Lu-PSMA-I&T treatment (< 6 weeks) was included in the analysis, to avoid taking into account PSA changes due to other previous treatments. For the same reason, PSA observations after the last [^177Lu]Lu-PSMA-I&T administration were collected up to start of a new treatment.
A sequential modelling approach was used for PKPD model development, where an additional compartment was considered to describe PSA concentrations over time. Baseline PSA concentrations were estimated as a typical population value with an estimated IIV on this population baseline value. […] For Edrug, a linear function, an Emax function and a sigmoid Emax model were evaluated (see Eqs. 9–11, respectively).9 Edrug=kD∗Ctumor 10 Edrug=EMAX∗Ctumor/EC50+Ctumor 11 Edrug=EMAX∗Ctumorγ/EC50γ+Ctumorγ where kD is a drug-induced effect, Ctumor is the estimated concentration in the tumor compartment (taking into account radioactive decay), EMAX is the maximal drug induced effect of [^177Lu]Lu-PSMA-I&T on PSA, EC50 is the [^177Lu]Lu-PSMA-I&T concentration at which half of the maximum drug-induced effect on PSA occurs and γ is a hill coefficient (that was both estimated and fixed during model development).
Therefore, a delay of the PD effect after administration of [^177Lu]Lu-PSMA-I&T (Edelayed) was evaluated using an effect compartment with a linear drug effect (Eq. 8) on the PSA compartment. This delayed effect was assessed both solely as well as additional to the direct effect (Edrug). […]

[5] = cited from earlier work; remark: listed apart in the source
From the text: Though differences are small, these might be caused by different treatment intervals (two-week instead of six-week interval) for most patients.

[6] = fraction of tumor uptake rate in cycle 1, estimate (RSE%)
[7] = population PK model, covariate exponent, estimate (RSE%)
[8] = population PK model, estimate (RSE%)

SMILES: O=C(O)CC[C@H](NC(=O)N[C@@H](CCCCNC(=O)[C@H](Cc1ccc2ccccc2c1)NC(=O)[C@H]1CC[C@H](CNC(=O)CN2CCN(CC(=O)O)CCN(CC(=O)O)CCN(CC(=O)O)CC2)CC1)C(=O)O)C(=O)O [[^177Lu]Lu-PSMA-617, metal not drawn]
Initial volume of distribution [1]: 22 L
Reported clearance [1]: 2.04 L/h
Excretion rate ([1]; population PK model): 0.288 h⁻¹

Tumor uptake rate in cycle 2 compared to cycle 1 ([2]; all 76 patients): 73% and 73.1%
Tumor uptake rate in cycle 3 compared to cycle 1 ([2]; all 76 patients): 50% and 49.8%
Tumor uptake rate in cycle 4–7 compared to cycle 1 ([2]; all 76 patients): 44% and 43.6%
Salivary gland uptake in cycle three compared to cycle one ([2]; cycle effect tested on k12): 98.1%
Salivary gland uptake in cycle two compared to cycle one ([2]; cycle effect tested on k12): 84.6%
Estimated half-life, tumors ([2]; decay-corrected data): ~46 h
Cycle 2 on k14 (fractional change) [2, 6]: 0.731 (8.1%)
Cycle 3 on k14 (fractional change) [2, 6]: 0.498 (11.3%)
Cycle 4–7 on k14 (fractional change) [2, 6]: 0.436 (11.6%)
Increase of tumor uptake rate with a two-times higher tumor volume ([2]; from power covariate 1.08 on k14): 2.11 fold
Tumor uptake rate in cycle 2 compared to cycle 1, excluding '4 × 6' patients ([2]; only '2 × 2 – repeated after twelve weeks' scheme): 82.9%
k10 (renal excretion rate constant from central compartment) ([2]; population PK model, 76 mCRPC patients, ~7.4 GBq per cycle, SPECT/CT, estimate (RSE%)): 0.253 (5.2%) h^−1
k12 (uptake rate central to salivary glands) ([2]; population PK model, 76 mCRPC patients, estimate (RSE%)): 0.0105 (9.2%) h^−1
Renal clearance ([2]; population PK model, mCRPC patients): 2.61 L/h
Tumor volume on k12 (power covariate function) [2, 7]: 0.0910 (30.0%)
Tumor volume on k14 (power covariate function) [2, 7]: 1.08 (7.5%)
k13 (uptake rate central to kidneys) [2, 8]: 0.0321 (6.9%) h^−1
k14 (uptake rate central to tumors) [2, 8]: 0.00967 (9.9%) h^−1
k15 (central to remaining tissue) [2, 8]: 0.275 (6.8%) h^−1
k21 (salivary glands to central) [2, 8]: 0.0629 (6.3%) h^−1
k31 (kidneys to central) [2, 8]: 0.0625 (5.4%) h^−1
k41 (tumors to central) [2, 8]: 0.0150 (3.4%) h^−1
k51 (remaining tissue to central) [2, 8]: 0.0247 (6.5%) h^−1
Estimated half-life, organs-at-risk ([2]; salivary glands and kidneys, decay-corrected data): approximately 11 h
BMAX compartment 2 (maximum binding capacity, salivary glands) ([2]; saturable uptake into salivary glands, estimate (RSE%)): 134 (15.5%) MBq
SMILES: O=C([O-])CC[C@H](NC(=O)N[C@@H](CCCCNC(=O)CCCCCCC(=O)NCCCC[C@@H](NC(=O)[C@@H](Cc1ccccc1)NC(=O)[C@@H](Cc1ccc(O)c(I)c1)NC(=O)CC[C@H](C(=O)[O-])N1CCN(CC(=O)[O-])CCN(CC(=O)[O-])CCN(CC(=O)[O-])CC1)C(=O)[O-])C(=O)[O-])C(=O)[O-].[177Lu+3].[H+].[H+].[H+].[H+].[H+] [[^177Lu]Lu-PSMA-I&T]
Threshold tumor AUC for ≥ 50% decrease in PSA, last measured PSA after first two cycles [3]: 1188 MBq·h/mL
Threshold tumor AUC for ≥ 50% decrease in PSA, nadir PSA as outcome [3]: 709.5 MBq·h/mL
Rate constant effect compartment (ke0) ([4]; first-order delay to effect compartment): 0.00128 (13.1%) h^−1
Delayed drug-induced effect (kD, delay) ([4]; linear effect from effect compartment on PSA): 0.0000328 (17.4%) L·day^−1·MBq^−1
Direct drug-induced effect (kD, direct) ([4]; linear effect of tumor concentration on PSA elimination): 0.00335 (40.1%) L·day^−1·GBq^−1
Average tumor absorbed dose, fourth cycle relative to first cycle [5]: 68%
Average tumor absorbed dose, second cycle relative to first cycle [5]: 94%
Average tumor absorbed dose, third cycle relative to first cycle [5]: 77%
Average tumor absorbed dose, first cycle ([5]; n = 5–15 patients per cycle): 3.5 Gy/GBq
Average tumor absorbed dose, fourth cycle ([5]; n = 5–15 patients per cycle): 2.4 Gy/GBq
Average tumor absorbed dose, second cycle ([5]; n = 5–15 patients per cycle): 3.3 Gy/GBq
Average tumor absorbed dose, third cycle ([5]; n = 5–15 patients per cycle): 2.7 Gy/GBq
